Data taken from US12552837B2, “Bicyclic peptide ligands with detectable moieties and uses thereof” (BicycleRD Limited, priority 2017, dated 2026).
*1 amine or outer side, *2 acyl side, *3 side chain or, on linkers, in order; H or OH if unused. Where a SMILES comes first, the peptide text is derived from it. Bridges are numbered along the chain shown (N, C = ends). [ ]: non-standard residue; d: D form. The star is where a group is joined. DOTA = O=C(O)CN1CCN(CC(=O)O)CCN(CC(=O)*)CCN(CC(=O)O)CC1; 1Nal = N[C@@H](Cc1cccc2ccccc12)C(=O)O; TBMB = c1c(C[*:1])cc(C[*:3])cc1C[*:2]; Tle = CC(C)(C)[C@H](N)C(=O)O

Target: MT1-MMP hemopexin domain (Homo sapiens, UniProt P50281)
Experiment: Fluorescence polarization direct binding / competition assay to MT1-MMP hemopexin domain
Method: Direct Binding Fluorescence Polarization or Anisotropy Assays are performed by titrating a constant concentration of fluorescent tracer (here, the fluoresceinated bicyclic peptide to be studied) with its binding partner (here, the MT1-MMP hemopexin domain). As the concentration of binding partner increases during the titration, the polarization signal changes in proportion to the fraction of bound and unbound material. This allows determination of […] (Kd) quantitatively. Assay data can be fit using standard ligand binding equations.
Typically, concentrations of the tracer are ideally well below the Kd of the tracer: titrant pair, and concentrations chosen are usually at ˜1 nM or less. The titrant (binding partner) concentration is varied from 0.1 nM up to typically 5 μM. The range is chosen such that the maximum change in fluorescent polarization can be observed. Buffers employed are phosphate buffered saline in the presence of 0.01% Tween. Experiments were run in black 384 well low-bind/low volume plates (Corning 3820), and the fluorescent polarization signal was measured using a BMG Pherastar FS plate reader. Fluorescent tracers referred to in the text are bicyclic peptides that have been fluoresceinated using 5,6-carboxyfluorescein. Fluoresceination may be performed on the N-terminal amino group of the peptide, which is separated from the bicycle core sequence by a sarcosine spacer (usually Sar10 (SEQ ID NO: 73)). This can be done during Fmoc solid phase synthesis or post-synthetically (after cyclization with the molecular scaffold reagent and purification) if the N-terminal amino group is unique to the peptide. Fluoresceination can also be performed on the C-terminus, usually on a Lysine introduced as the first C-terminal residue, which is then separated from the bicycle core sequence by a sarcosine spacer (usually Sar6 (SEQ ID NO: 69)). Thus, N-terminal tracers can have a molecular format described as Fluo-Ala-Sar10-A (SEQ ID NO: 72) (BicycleCoreSequence), and (BicycleCoreSequence)-A-Sar6-K (Fluo) (SEQ ID NO: 67) for a C-terminally fluoresceinated construct.
Fluorescent tracers used in the Examples are A-(17-69)-A-Sar6-K (Fluo) (SEQ ID NO: 67), A-(17-69-07)-A-Sar6-K (Fluo) (SEQ ID NO: 67), and A-(17-69-12)-A-Sar6-K (Fluo) (SEQ ID NO: 67). Due to the acidic nature of the 17-69 fluorescent peptides, they were typically prepared as concentrated DMSO stocks, from which dilution were prepared in 100 mM Tris pH 8 buffer.
Due to their high affinities to the MT1-MMP Hemopexin domain (PEX), the fluoresceinated derivatives of 17-69-07 and 17-69-12 (denoted as 17-69-07-N040 and 17-69-12-N005, respectively) can be used for competition experiments (using FP for detection). […] Dissociation of the complex can be measured quantitatively, and the Kd of the competitor (titrant) to the target protein determined. The advantage of the competition method is that the affinities of non-fluoresceinated bicyclic peptides can be determined accurately and rapidly.
Subsequently, the non-fluorescent competitor bicyclic peptide (usually just the bicycle core sequence) is titrated, such that it displaces the fluorescent tracer from the target protein. The displacement of the tracer is measured and associated with a drop in fluorescence polarization. The drop in fluorescence polarization is proportional to the fraction of target protein bound with the non-fluorescent titrant, and thus is a measure of the affinity of titrant to target protein. […]

C[C@H](NC(=O)CN1CCN(CC(=O)O)CCN(CC(=O)O)CCN(CC(=O)O)CC1)C(=O)N[C@H]1CSCc2cc3cc(c2)CSC[C@H](NC(=O)[C@@H](C)NC(=O)[C@H](Cc2cccc4ccccc24)NC(=O)[C@H](CCC(=O)O)NC(=O)[C@H](CC(N)=O)NC(=O)[C@@H](C)NC1=O)C(=O)N[C@@H](CCC(=O)O)C(=O)N[C@@H](CC(=O)O)C(=O)N[C@@H](Cc1ccccc1)C(=O)N[C@@H](Cc1ccc(O)cc1)C(=O)N[C@@H](CC(=O)O)C(=O)N[C@@H](C(C)(C)C)C(=O)N[C@H](C(N)=O)CSC3 [I-23] ({DOTA}-AC[dA]NE[1Nal][dA]CEDFYD[Tle]C-NH2; linker 2-8-15 via TBMB)
Kd: 0.52 ± 0.24 nM
